From publication PMC8260761, “A bacteriocin-based treatment option for Staphylococcus haemolyticus biofilms” (Scientific Reports, 2021)

Experiments:
Assay in all cases: Spot-on-lawn inhibition assay
Format in all cases: cell-based
[1] = tested on: Staphylococcus haemolyticus strains; set-up: key to Average inhibition score: –: “−” = No inhibition; “+” = Unclear zone; “++” = zone < 1 cm; “+++” = zone ≥ 1 cm
Protocol: (§1) A semi-quantitative spot-on-lawn inhibitory assay was performed on 51 bacterial indicator strains (Table S1) to determine the bacteriocins inhibition spectra. Overnight cultures were diluted 1:100 in BHI soft agar and distributed on BHI agar plates. Once solidified, bacteriocins with various concentrations were applied on designated spots. The plates were incubated at appropriate temperature O/N and inhibition zones were measured the following day. To determine minimal inhibitory concentration (MIC50) of H1 against clinical S. haemolyticus isolates (Table S2), as well as strains heterologously expressing RseP (Table S4), the microtiterplate antimicrobial assay was performed as previously described[41],[79]. MIC50 was defined as the minimal bacteriocin concentration needs to inhibit the growth of a bacterial strain by at least 50%.

[2] = tested on: Bacillus cereus; set-up: key: –: “−” = No inhibition; “+” = Unclear zone; “++” = zone < 1 cm; “+++” = zone ≥ 1 cm; conditions: 5 µl at 1 mg/ml, n=3
Protocol: as §1

[3] = tested on: C. piscicola; set-up: key: –: “−” = No inhibition; “+” = Unclear zone; “++” = zone < 1 cm; “+++” = zone ≥ 1 cm; conditions: C. piscicola LMG 2332; 5 µl at 1 mg/ml; n=3
Protocol: as §1

[4] = tested on: L. monocytogenes; set-up: key: –: “−” = No inhibition; “+” = Unclear zone; “++” = zone < 1 cm; “+++” = zone ≥ 1 cm; conditions: L. monocytogenes EDGe; 5 µl at 1 mg/ml; n=3
Protocol: as §1

[5] = tested on: S. uberis; set-up: key: –: “−” = No inhibition; “+” = Unclear zone; “++” = zone < 1 cm; “+++” = zone ≥ 1 cm; conditions: S. uberis 7904-3; 5 µl at 1 mg/ml; n=3
Protocol: as §1

[6] = tested on: S. aureus; set-up: key: “-“ = No inhibition; “+” = Unclear zone; “++” = zone < 1 cm; “+++”= zone > 1 cm; conditions: 5 µl at 1 mg/ml, n=3
Protocol: as §1

[7] = tested on: S. epidermidis; set-up: key: “-“ = No inhibition; “+” = Unclear zone; “++” = zone < 1 cm; “+++”= zone > 1 cm; conditions: S. epidermidis LMG 3522; 5 µl at 1 mg/ml; n=3
Protocol: as §1

[8] = tested on: Staphylococcus arlettae; set-up: key: “-“ = No inhibition; “+” = Unclear zone; “++” = zone < 1 cm; “+++”= zone > 1 cm; conditions: Staphylococcus arlettae LMG 4134; 5 µl at 1 mg/ml; n=3
Protocol: as §1

Sequence: MKFKFNPTGTIVKKLTQYEIAWFKNKHGYYPWEIPRC [K1, enterocin K1]
- Average inhibition score ([1]; S. haemolyticus 4068, 5 μl at 1 mg/ml, n = 3): –
- Average inhibition score ([1]; S. haemolyticus 4069, 5 μl at 1 mg/ml, n = 3): –
- Average inhibition score ([1]; S. haemolyticus 4070, 5 μl at 1 mg/ml, n = 3): –
- Average inhibition score ([1]; S. haemolyticus 4071, 5 μl at 1 mg/ml, n = 3): –
- Average inhibition score ([1]; S. haemolyticus 4072, 5 μl at 1 mg/ml, n = 3): –
- Average inhibition score ([1]; S. haemolyticus 4073, 5 μl at 1 mg/ml, n = 3): –
- Average inhibition score ([1]; S. haemolyticus 7067_4_21, 5 μl at 1 mg/ml, n = 3): –
- Average inhibition score ([1]; S. haemolyticus 7067_4_28, 5 μl at 1 mg/ml, n = 3): –
- Average inhibition score ([1]; S. haemolyticus 7067_4_39, 5 μl at 1 mg/ml, n = 3): –
- Average inhibition score ([1]; S. haemolyticus 7067_4_48, 5 μl at 1 mg/ml, n = 3): –
- Average inhibition score ([1]; S. haemolyticus 7067_4_49, 5 μl at 1 mg/ml, n = 3): –
- Average inhibition score ([1]; S. haemolyticus 7067_4_56, 5 μl at 1 mg/ml, n = 3): –
- Average inhibition score ([1]; S. haemolyticus 7067_4_60, 5 μl at 1 mg/ml, n = 3): ++ (“++” = zone < 1 cm)
- Average inhibition score ([1]; S. haemolyticus 7067_4_66, 5 μl at 1 mg/ml, n = 3): –
- Average inhibition score ([1]; S. haemolyticus 7067_4_67, 5 μl at 1 mg/ml, n = 3): –
- Average inhibition score ([1]; S. haemolyticus 7067_4_71, 5 μl at 1 mg/ml, n = 3): –
- Average inhibition score ([1]; S. haemolyticus 7067_4_84, 5 μl at 1 mg/ml, n = 3): –
- Average inhibition score ([1]; S. haemolyticus 7068_7_63, 5 μl at 1 mg/ml, n = 3): –
- Average inhibition score ([1]; S. haemolyticus LMG 4133, 5 µl at 1 mg/ml, n=3): +
- Average inhibition score ([1]; S. haemolyticus SH01, 5 μl at 1 mg/ml, n = 3): –
- Average inhibition score ([1]; S. haemolyticus SH04, 5 μl at 1 mg/ml, n = 3): –
- Average inhibition score ([1]; S. haemolyticus SH09, 5 μl at 1 mg/ml, n = 3): –
- Average inhibition score ([1]; S. haemolyticus SH10, 5 μl at 1 mg/ml, n = 3): +
- Average inhibition score ([1]; S. haemolyticus SH14, 5 μl at 1 mg/ml, n = 3): –
- Average inhibition score ([1]; S. haemolyticus SH20, 5 μl at 1 mg/ml, n = 3): +
- Average inhibition score ([1]; S. haemolyticus SH46, 5 μl at 1 mg/ml, n = 3): –
- Average inhibition score ([1]; S. haemolyticus SH47, 5 μl at 1 mg/ml, n = 3): +
- Inhibition zones at three concentrations ([1]; six S. haemolyticus strains 4068–4073, 0.04, 0.2 and 1.0 mg/ml, 5 µl spotted): did not result in any inhibition
- Average inhibition score ([2]; B. cereus LMG 2711): +
- Average inhibition score ([2]; B. cereus LMG 2731): +
- Average inhibition score ([2]; Bacillus cereus LMG 2805): +
- Average inhibition score [3]: +
- Average inhibition score [4]: +
- Average inhibition score [5]: +
- Average inhibition score ([6]; S. aureus ATCC14458): -
- Average inhibition score ([6]; S. aureus LMG 3263): -
- Average inhibition score ([6]; S. aureus LMG 3325): -
- Average inhibition score ([6]; S. aureus LMG 3326): -
- Average inhibition score ([6]; S. aureus LMG 3328): -
- Average inhibition score ([6]; S. aureus LMG 3329): -
- Average inhibition score [7]: -
- Average inhibition score [8]: -
